This is an account of results in patent EP3441078A1, “PHARMACEUTICAL PRODUCT FOR TREATING LUPUS ERY[…] COMBINED IMMUNE DEFECT, AND PREPARATION AND APPLICATION THEREOF” (Beijing Lu De Kai Qi Co., Ltd., priority 2016, dated 2017).

SMILES strings stand for the structures. Like-named read-outs stand apart in the source and are kept apart here. Marks after values point to notes of the source that are not given here.

Data set [1] relates to sperm abnormality in mice. The following applies: male mice, 40mg/kg•bw, positive control.
Description: 1. […] The walnut extract, wormwood extract, American ginseng extract and shí hú extract were respectively taken, treated in a 70°C water bath for 1 hour, soaked for 12 hours, and concentrated for testing.
(§1) The healthy Kunming mice provided by the Experimental Animal Center of the National Institute for the Control of Pharmaceutical and Biological Products were selected.
50 sexually mature male mice weighing 30-35 g were randomly divided into 5 groups. […] The doses of the anti-lupus erythematosus pharmaceutical product for combined immunization according to the present invention were 2.00, 4.00, and 6.00 g/kg•bw, respectively, and the desired concentration were adjusted with distilled water. The mice were administered via oral gavage once a day for 5 days, and the animals were sacrificed 30 days after the last gavage. The epididymis was acquired and sectioned and stained with eosin. Five animals were counted in each group and 1000 intact sperm were counted per animal. The incidence of sperm abnormality (in percentage) was calculated and statistically processed.
The test system of data set [2] is polychromatic erythrocytes in bone marrow of mice. Particulars: 50mg/kg•bw, positive control; for Number of Micronuclei(in Ge): 5000 cells inspected; for Permillage of Micronuclei: P<0.01 vs negative control.
Description: as §1
The assay was carried out via oral gavage and the administration was performed twice at intervals of 24 hrs. 50 mice weighing 25-30 g were randomly divided into 5 groups according to body weight, 10 in each group, half male and half female. […] The doses of the anti-lupus erythematosus pharmaceutical product for combined immunization according to the present invention were 2.00, 4.00, and 6.00 g/kg•bw, respectively, which were adjusted to the desired concentration with distilled water. The animals were sacrificed by cervical dislocation six hours after the last administration of the anti-lupus erythematosus pharmaceutical product for combined immunization according to the present invention. The bone marrow of sternum was acquired and diluted with calf serum, smeared, fixed in methanol, and stained with Giemsa. Under the light microscope, 1000 polychromatic erythrocytes (PRC) were measured per animal, and the incidence of micronucleus was determined by the permillage of micronucleus-containing PRC and statistically processed. […] Kunming healthy mice provided by Laboratory Animal Center of National Institutes for Food and Pharmaceutical product Control were selected.
The test was carried out by two-time intragastric administration at an interval of 24 hours.50 mice weighing 25-30 g were randomly divided into 5 groups according to their body weight. They were randomly divided into 5 groups according to their body weight, with 10 mice in each group, half male and half female. […] The doses of the anti-lupus erythematosus pharmaceutical product for combined immunization of the present invention were 2.00, 4.00 and 6.00 g/kg•bw respectively, and were mixed with distilled water to the desired concentration. The animals were sacrificed by cervical dislocation 6 hours after the last administration of the anti-lupus erythematosus pharmaceutical product for combined immunization of the present invention. The sternum bone marrow was diluted with calf serum, fixed with methanol, and stained with Giemsa. Under the light microscope, 1000 polychromatic erythrocytes (PRC) were counted per animal, and the incidence of micronuclei was measured by the permillage of micronucleus-containing PRC and statistically processed.

With `O=P1(N(CCCl)CCCl)NCCCO1` (stereo not drawn) [cp, cyclophosphamide], in data set [1] (5000 sperms inspected), the “Number of Abnormal Sperms(in Ge)” value worked out at 480. Moreover, the “Percentage of Abnormal Sperms” value in data set [1] (P<0.01 vs negative control) was 9.6* %. Further, the “Number of Micronuclei(in Ge)” value in data set [2] (Female mice) and in data set [2] (Male mice) was 150 throughout. Further, the “Permillage of Micronuclei” value in data set [2] (Female mice) and in data set [2] (Male mice) was 30.0* ‰ throughout.
